Results: patent publication US5591757A, “Dihydropyridine composition” (Yamanouchi Pharmaceutical Co., Ltd., priority 1984, dated 1997)
Where a name gives a salt, the structure may show the parent alone. Read-outs that look alike come from different tables or passages of the source.

Key:
Beta-adrenoceptor [1] = target: T1, Beta-adrenoceptor (Rattus norvegicus, UniProt P18090); experiment: Intrinsic sympathomimetic activity (ISA) in reserpinized rats; format: in vivo, male Wistar rats; set-up: The rats were anesthetized with pentobarbital sodium; from tissue; host or cells: heart in the living anesthetized male Wistar rat (reserpine-pretreated, vagotomized); conditions: reserpine-pretreated rats, iv
T1 sequence (P18090 whole entry): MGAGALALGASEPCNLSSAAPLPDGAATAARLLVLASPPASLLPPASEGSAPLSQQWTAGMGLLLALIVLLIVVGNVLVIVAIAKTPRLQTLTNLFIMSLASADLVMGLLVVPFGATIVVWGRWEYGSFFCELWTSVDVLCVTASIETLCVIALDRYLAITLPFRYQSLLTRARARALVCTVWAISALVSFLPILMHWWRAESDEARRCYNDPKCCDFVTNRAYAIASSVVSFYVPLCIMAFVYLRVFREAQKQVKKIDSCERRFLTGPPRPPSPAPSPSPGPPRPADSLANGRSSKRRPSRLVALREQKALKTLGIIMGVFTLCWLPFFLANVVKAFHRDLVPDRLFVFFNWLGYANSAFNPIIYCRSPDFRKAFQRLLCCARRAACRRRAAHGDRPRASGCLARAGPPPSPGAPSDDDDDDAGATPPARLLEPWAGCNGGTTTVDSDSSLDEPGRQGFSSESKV
Experimental: (§1) The rats were pretreated with reserpine (8 mg/kg ip), 18 hr before experiments. […] The heart rate was measured with a cardiotachometer triggered by the QRS of the ECG (lead II) and recorded on a polygraph. After the Control response to isoproterenol at a dose of 0.1 μg/kg iv was obtained, the test compound was injected iv in increasing doses at 20 min intervals.
In this series of experiments, intrinsic sympathomimetic activity (ISA) was also evaluated.

Beta-adrenoceptor [2] = target: T1, Beta-adrenoceptor; experiment: Beta-adrenoceptor blocking effect in reserpinized rats (isoproterenol chronotropy); format: in vivo, male Wistar rats; set-up: The rats were anesthetized with pentobarbital sodium; from tissue; host or cells: heart in the living anesthetized male Wistar rat (reserpine-pretreated, vagotomized); conditions: isoproterenol 0.1 μg/kg iv, cumulative iv doses, read-out: Beta-Blocking ED50 (50% blockade of positive chronotropic response to isoproterenol)
Experimental: as §1

left coronary artery = experiment: Coronary vasodilating effects in dogs (intracoronary); format: in vivo, mongrel dogs; conditions: for Duration of action of coronary vasodilating effect: intracoronary (ia)
Experimental: Mongrel dogs of either sex were anesthetized and ventilated as previously described. A thoracotomy was performed at the 4th intercostal space. Following an intravenous injection of heprin (1000 units/kg), blood from the distal end of the cannulated carotid artery was pumped into circumflex branch of the left coronary artery using a servocontrolled peristaltic pump which maintained a constant perfusion pressure of 120 mmHg by means of a pump controller. An electromagnetic flow probe was inserted in the circit to record blood flow through the cannulated coronary artery. The test compounds were administered directly into the rubber tubing connected close to the coronary artery cannula.

[3] = test system: mean arterial blood pressure (MBP) and coronary blood flow (Cor. BF); experiment: Hemodynamic effects in anesthetized open-chest dogs (i.v.); format: in vivo, mongrel dogs; conditions: Canis lupus familiaris, anesthetized dogs; for change in vivo at 0.03 mg/kg: 0.03 mg/kg iv; for change in vivo at 0.3 mg/kg: 0.3 mg/kg iv; for change in vivo at 1 mg/kg: 1.0 mg/kg iv; for change in vivo at 0.1 mg/kg: 0.1 mg/kg iv
Experimental: Mongrel dogs of either sex were anesthetized with pentobarbital sodium (30 mg/kg iv). The animals were artificially ventilated with room air. The chest was opened at the left 4th intercostal space. Mean arterial blood pressure (MBP), heart rate (HR), left ventricular pressure (LVP), max. dLVP/dt, mean pulmonary arterial blood pressure (MPAP), cardiac output (CO) and coronary blood flow (Cor. BF) were measured. The test compounds were injected into the femoral vein. […] BF from control values induced by intravenous injection of test compounds.

[4] = read-out: percent change of Cor. BF from control
[5] = read-out: percent change of MBP from control

COC(=O)C1=C(C)NC(C)=C(C(=O)OCCCCCCCCCCNCC(O)COc2ccccc2)C1c1cccc([N+](=O)[O-])c1.Cl (stereo not drawn) [Example 13, 10-(2-hydroxy-3-phenoxy-propylamino)decyl methyl 2,6-dimethyl-4-(m-nitro-phenyl)-1,4-dihydropyridine-3,5-dicarboxylate hydrochloride]
ISA (increase in HR) (Beta-adrenoceptor [1]): + (an increase in HR by 10 to 19 beats/min was observed)
ED50 (Beta-adrenoceptor [2]): 0.72 mg/kg
ED100 pap (dose for 100% increase of Cor. BF; maximum response to papaverine 300 μg ia = 100%) (left coronary artery): 12 μg ia
Duration of action of coronary vasodilating effect (left coronary artery): 60 min
change in vivo at 0.03 mg/kg [3, 4]: 102%
change in vivo at 0.03 mg/kg [3, 5]: -21%

COC(=O)C1=C(C)NC(C)=C(C(=O)OCCCCCCNCC(O)COc2ccccc2)C1c1ccccc1[N+](=O)[O-] (stereo not drawn) [Example 41, 6-(2-hydroxy-3-phenoxypropylamino)hexyl methyl 2,6-dimethyl-4-(o-nitrophenyl)-1,4-dihydropyridine-3,5-dicarboxylate]
ISA (increase in HR) (Beta-adrenoceptor [1]): +++ (an increase in HR by above 30 beats/min)
ED50 (Beta-adrenoceptor [2]): 0.58 mg/kg
ED100 pap (dose for 100% increase of Cor. BF; maximum response to papaverine 300 μg ia = 100%) (left coronary artery): 43 μg ia
Duration of action of coronary vasodilating effect (left coronary artery): > 60 min
change in vivo at 0.3 mg/kg [3, 4]: 45%
change in vivo at 0.3 mg/kg [3, 5]: -34%

CC1=C(C(=O)OCCCCCCNCC(O)COc2ccccc2)C(c2cccc([N+](=O)[O-])c2)C(C(=O)OC(C)(C)C)=C(C)N1.Cl (stereo not drawn) [Example 21, tert-butyl 6-(2-hydroxy-3-phenoxypropylamino)hexyl 2,6-dimethyl-4-(m-nitrophenyl)-1,4-dihydropyridine-3,5-dicarboxylate hydrochloride]
ISA (increase in HR) (Beta-adrenoceptor [1]): + (an increase in HR by 10 to 19 beats/min was observed)
ED50 (Beta-adrenoceptor [2]): 1.01 mg/kg
ED100 pap (dose for 100% increase of Cor. BF; maximum response to papaverine 300 μg ia = 100%) (left coronary artery): 137 μg ia
Duration of action of coronary vasodilating effect (left coronary artery): 60 min
change in vivo at 1 mg/kg [3, 4]: 34%
change in vivo at 1 mg/kg [3, 5]: -28%

COC(=O)C1=C(C)NC(C)=C(C(=O)OCCCCCCNCC(O)COc2ccccc2)C1c1cccc(C)c1.Cl (stereo not drawn) [Example 48, 6-(2-hydroxy-3-phenoxypropylamino)hexyl methyl 2,6-dimethyl-4-(m-methylphenyl)-1,4-dihydro-pyridine-3,5-dicarboxylate hydrochloride]
ISA (increase in HR) (Beta-adrenoceptor [1]): -
ED50 (Beta-adrenoceptor [2]): 0.68 mg/kg
ED100 pap (dose for 100% increase of Cor. BF; maximum response to papaverine 300 μg ia = 100%) (left coronary artery): 76 μg ia
Duration of action of coronary vasodilating effect (left coronary artery): 60 min
change in vivo at 0.3 mg/kg [3, 4]: 71%
change in vivo at 0.3 mg/kg [3, 5]: -20%
change in vivo at 1 mg/kg [3, 4]: 92%
change in vivo at 1 mg/kg [3, 5]: -43%

COC(=O)C1=C(C)NC(C)=C(C(=O)OCCCCCCNCC(O)COc2ccccc2)C1c1cccc(C(F)(F)F)c1 (stereo not drawn) [Example 7, 6-(2-hydroxy-3-phenoxypropylamino)hexyl methyl 2,6-dimethyl-4-(m-trifluoromethylphenyl)-1,4-dihydropyridin-3,5-dicarboxylate]
ISA (increase in HR) (Beta-adrenoceptor [1]): -
ED50 (Beta-adrenoceptor [2]): 1.93 mg/kg
ED100 pap (dose for 100% increase of Cor. BF; maximum response to papaverine 300 μg ia = 100%) (left coronary artery): 100 μg ia
Duration of action of coronary vasodilating effect (left coronary artery): > 60 min
change in vivo at 1 mg/kg [3, 4]: 24%
change in vivo at 1 mg/kg [3, 5]: -20%

COC(=O)C1=C(C)NC(C)=C(C(=O)OCCCCCCNCC(O)COc2ccccc2C#N)C1c1cccc([N+](=O)[O-])c1.Cl (stereo not drawn) [Example 30, 6-[3-(o-cyanophenoxy)-2-hydroxypropylamino]hexyl methyl 2,6-dimethyl-4-(m-nitrophenyl)-1,4-di-hydropyridine-3,5-dicarboxylate hydrochloride]
ISA (increase in HR) (Beta-adrenoceptor [1]): -
ED50 (Beta-adrenoceptor [2]): 0.79 mg/kg
change in vivo at 0.1 mg/kg [3, 4]: 12%
change in vivo at 0.1 mg/kg [3, 5]: -21%

COC(=O)C1=C(C)NC(C)=C(C(=O)OCCCCNCC(O)COc2ccccc2)C1c1cccc([N+](=O)[O-])c1.Cl (stereo not drawn) [Example 11, 4-(2-hydroxy-3-phenoxy-propylamino)butyl methyl 2,6-dimethyl-4-(m-nitro-phenyl)-1,4-dihydropyridine-3,5-dicarboxylate hydrochloride]
ISA (increase in HR) (Beta-adrenoceptor [1]): ++ (an increase in HR by 20 to 29 beats/min was observed)
ED50 (Beta-adrenoceptor [2]): 0.64 mg/kg
ED100 pap (dose for 100% increase of Cor. BF; maximum response to papaverine 300 μg ia = 100%) (left coronary artery): 150 μg ia
Duration of action of coronary vasodilating effect (left coronary artery): 60 min
change in vivo at 0.1 mg/kg [3, 4]: 35%
change in vivo at 0.1 mg/kg [3, 5]: -16%
change in vivo at 1 mg/kg [3, 4]: 193%
change in vivo at 1 mg/kg [3, 5]: -41%

COC(=O)C1=C(C)NC(C)=C(C(=O)OCCCCCCNCC(O)COc2ccccc2Cl)C1c1cccc([N+](=O)[O-])c1 (stereo not drawn) [Example 32, 6-[3-(o-chlorophenoxy)-2-hydroxypropylamino]hexyl methyl 2,6-dimethyl-4-(m-nitrophenyl)-1,4-dihyrdopyridine-3,5-dicarboxylate hydrochloride]
ISA (increase in HR) (Beta-adrenoceptor [1]): -
ED50 (Beta-adrenoceptor [2]): 1.18 mg/kg
change in vivo at 0.1 mg/kg [3, 4]: 35%
change in vivo at 0.1 mg/kg [3, 5]: -18%
change in vivo at 0.3 mg/kg [3, 4]: 93%
change in vivo at 0.3 mg/kg [3, 5]: -36%

COC(=O)C1=C(C)NC(C)=C(C(=O)OCCCCCCNCC(O)COc2ccccc2)C1c1cccc(Cl)c1.Cl (stereo not drawn) [Example 43, 6-(2-hydroxy-3-phenoxypropylamino)hexyl methyl 4-(m-chlorophenyl)-2,6-dimethyl-1,4-dihydro-pyridine-3,5-dicarboxylate hydrochloride]
ISA (increase in HR) (Beta-adrenoceptor [1]): -
ED50 (Beta-adrenoceptor [2]): 0.87 mg/kg
ED100 pap (dose for 100% increase of Cor. BF; maximum response to papaverine 300 μg ia = 100%) (left coronary artery): 56 μg ia
Duration of action of coronary vasodilating effect (left coronary artery): > 60 min
change in vivo at 0.3 mg/kg [3, 4]: 44%
change in vivo at 0.3 mg/kg [3, 5]: -22%

COCCOC(=O)C1=C(C)NC(C)=C(C(=O)OCCCCCCNCC(O)COc2ccccc2)C1c1cccc([N+](=O)[O-])c1 (stereo not drawn) [Example 22, 6-(2-hydroxy-3-phenoxy-propylamino)hexyl 2-methoxyethyl-2,6-dimethyl-4-(m-nitrophenyl-3,5-dicarboxylate hydrochloride]
ISA (increase in HR) (Beta-adrenoceptor [1]): -
ED50 (Beta-adrenoceptor [2]): 0.82 mg/kg
ED100 pap (dose for 100% increase of Cor. BF; maximum response to papaverine 300 μg ia = 100%) (left coronary artery): 128 μg ia
Duration of action of coronary vasodilating effect (left coronary artery): 60 min
change in vivo at 0.3 mg/kg [3, 4]: 118%
change in vivo at 0.3 mg/kg [3, 5]: -22%

CCOC(=O)C1=C(C)NC(C)=C(C(=O)OCCCCCCNCC(O)COc2ccccc2)C1c1cccc([N+](=O)[O-])c1 (stereo not drawn) [Example 18, Ethyl 6-(2-hydroxy-3-phenoxy/propylamino)hexyl 2,6-dimethyl-4-(m-nitrophenyl)-1,4-dihydroxypyridine-3,5-dicarboxylate]
ISA (increase in HR) (Beta-adrenoceptor [1]): -
ED50 (Beta-adrenoceptor [2]): 1.25 mg/kg
ED100 pap (dose for 100% increase of Cor. BF; maximum response to papaverine 300 μg ia = 100%) (left coronary artery): 67 μg ia
Duration of action of coronary vasodilating effect (left coronary artery): > 60 min
change in vivo at 0.3 mg/kg [3, 4]: 31%
change in vivo at 0.3 mg/kg [3, 5]: -22%

COC(=O)C1=C(C)NC(C)=C(C(=O)OCCCCCCNCC(O)COc2ccccc2)C1c1cccc(OC)c1 (stereo not drawn) [Example 46, 6-(2-hydroxy-3-phenoxypropylamino)hexyl methyl 2,6-dimethyl-4-(m-methoxyphenyl)-1,4-dihyrdopyridine-3,5-dicarboxylate hydrochloride]
ISA (increase in HR) (Beta-adrenoceptor [1]): + (an increase in HR by 10 to 19 beats/min was observed)
ED50 (Beta-adrenoceptor [2]): 0.66 mg/kg
ED100 pap (dose for 100% increase of Cor. BF; maximum response to papaverine 300 μg ia = 100%) (left coronary artery): 98 μg ia
Duration of action of coronary vasodilating effect (left coronary artery): > 60 min
change in vivo at 0.3 mg/kg [3, 4]: 36%
change in vivo at 0.3 mg/kg [3, 5]: -21%
change in vivo at 1 mg/kg [3, 4]: 78%
change in vivo at 1 mg/kg [3, 5]: -45%

COC(=O)C1=C(C)NC(C)=C(C(=O)OCCCCCCNCC(O)COc2ccccc2)C1c1ccccc1OC.Cl (stereo not drawn) [Example 47, 6-(2-hydroxy-3-phenoxypropylamino)hexyl methyl 2,6-dimethyl-4-(o-methoxyphenyl)-1,4-dihydropyridine-3,5-dicarboxylate hydrochloride]
ISA (increase in HR) (Beta-adrenoceptor [1]): +++ (an increase in HR by above 30 beats/min)
ED50 (Beta-adrenoceptor [2]): 0.11 mg/kg
ED100 pap (dose for 100% increase of Cor. BF; maximum response to papaverine 300 μg ia = 100%) (left coronary artery): 245 μg ia
Duration of action of coronary vasodilating effect (left coronary artery): > 60 min
change in vivo at 0.3 mg/kg [3, 4]: 30%
change in vivo at 0.3 mg/kg [3, 5]: -34%
change in vivo at 1 mg/kg [3, 4]: 57%
change in vivo at 1 mg/kg [3, 5]: -44%
